According to ChEMBL document CHEMBL1151757, “Synthesis, radiosynthesis, and biological evaluation of fluorine-18-labeled 2beta-carbo(fluoroalkoxy)-3beta-(3'-((Z)-2-haloethenyl)phenyl)nortropanes: candidate radioligands for in vivo imaging of the serotonin transporter with positron emission tomography” (J Med Chem, 2008):

Columns and labels:
Midbrain [1] = experiment: Drug uptake in anesthetized cynomolgus monkey brain midbrain after 15.5 mins postinjection; format: ADME, organism-based, Macaca fascicularis; design: unit not given here; conditions: in vivo
[2] = Ratio of drug uptake in thalamus to cerebellum in anesthetized cynomolgus monkey after 115 mins postinjection; format: ADME, organism-based, Macaca fascicularis; conditions: in vivo
[3] = Ratio of drug uptake in occipital lobe to cerebellum in anesthetized cynomolgus monkey after 185 mins postinjection; format: ADME, organism-based, Macaca fascicularis; conditions: in vivo
Pons [4] = experiment: Drug uptake in anesthetized cynomolgus monkey brain pons after 2.5 mins postinjection; format: ADME, organism-based, Macaca fascicularis; conditions: in vivo
[5] = Drug uptake in anesthetized cynomolgus monkey brain frontal lobe after 27.5 mins postinjection; format: ADME, organism-based, Macaca fascicularis; conditions: in vivo
Midbrain [6] = experiment: Drug uptake in anesthetized cynomolgus monkey brain midbrain after 35 mins postinjection; format: ADME, organism-based, Macaca fascicularis; design: unit not given here; conditions: in vivo
Medulla [7] = experiment: Drug uptake in anesthetized cynomolgus monkey brain medulla after 145 mins postinjection; format: ADME, organism-based, Macaca fascicularis; conditions: in vivo
Putamen [8] = experiment: Drug uptake in anesthetized cynomolgus monkey brain putamen after 22.5 mins postinjection; format: ADME, organism-based, Macaca fascicularis; design: unit not given here; conditions: in vivo, 0.375 h
[9] = Drug uptake in anesthetized cynomolgus monkey brain occipital lobe after 75 mins postinjection; format: ADME, organism-based, Macaca fascicularis; conditions: in vivo, 1.25 h
[10] = Ratio of drug uptake in midbrain to cerebellum in anesthetized cynomolgus monkey after 85 mins postinjection; format: ADME, organism-based, Macaca fascicularis; conditions: in vivo
Thalamus [11] = experiment: Drug uptake in anesthetized cynomolgus monkey brain thalamus after 225 mins postinjection; format: ADME, organism-based, Macaca fascicularis; design: unit not given here; conditions: in vivo, 3.75 h
Thalamus [12] = experiment: Drug uptake in anesthetized cynomolgus monkey brain thalamus after 85 mins postinjection; format: ADME, organism-based, Macaca fascicularis; design: unit not given here; conditions: in vivo
[13] = Ratio of drug uptake in occipital lobe to cerebellum in anesthetized cynomolgus monkey after 205 mins postinjection; format: ADME, organism-based, Macaca fascicularis; conditions: in vivo
Thalamus [14] = experiment: Drug uptake in anesthetized cynomolgus monkey brain thalamus after 125 mins postinjection; format: ADME, organism-based, Macaca fascicularis; design: unit not given here; conditions: in vivo
[15] = Ratio of drug uptake in midbrain to cerebellum in anesthetized cynomolgus monkey after 9.5 mins postinjection; format: ADME, organism-based, Macaca fascicularis; conditions: in vivo
Putamen [16] = experiment: Drug uptake in anesthetized cynomolgus monkey brain putamen after 15.5 mins postinjection; format: ADME, organism-based, Macaca fascicularis; design: unit not given here; conditions: in vivo
[17] = Drug uptake in anesthetized cynomolgus monkey brain frontal lobe after 115 mins postinjection; format: ADME, organism-based, Macaca fascicularis; conditions: in vivo
Thalamus [18] = experiment: Drug uptake in anesthetized cynomolgus monkey brain thalamus after 4.5 mins postinjection; format: ADME, organism-based, Macaca fascicularis; design: unit not given here; conditions: in vivo, 0.075 h
[19] = Ratio of drug uptake in pons to cerebellum in anesthetized cynomolgus monkey after 105 mins postinjection; format: ADME, organism-based, Macaca fascicularis; conditions: in vivo, 1.75 h
Putamen [20] = experiment: Drug uptake in anesthetized cynomolgus monkey brain putamen after 35 mins postinjection; format: ADME, organism-based, Macaca fascicularis; design: unit not given here; conditions: in vivo
Pons [21] = experiment: Drug uptake in anesthetized cynomolgus monkey brain pons after 18.5 mins postinjection; format: ADME, organism-based, Macaca fascicularis; conditions: in vivo
Thalamus [22] = experiment: Drug uptake in anesthetized cynomolgus monkey brain thalamus after 22.5 mins postinjection; format: ADME, organism-based, Macaca fascicularis; design: unit not given here; conditions: in vivo, 0.375 h
Medulla [23] = experiment: Drug uptake in anesthetized cynomolgus monkey brain medulla after 15.5 mins postinjection; format: ADME, organism-based, Macaca fascicularis; conditions: in vivo
[24] = Drug uptake in anesthetized cynomolgus monkey brain frontal lobe after 1.5 mins postinjection; format: ADME, organism-based, Macaca fascicularis; conditions: in vivo, 0.025 h
Putamen [25] = experiment: Drug uptake in anesthetized cynomolgus monkey brain putamen after 55 mins postinjection; format: ADME, organism-based, Macaca fascicularis; design: unit not given here; conditions: in vivo
Caudate [26] = experiment: Drug uptake in anesthetized cynomolgus monkey brain caudate after 2.5 mins postinjection; format: ADME, organism-based, Macaca fascicularis, Caudate nucleus; conditions: in vivo
[27] = Ratio of drug uptake in medulla to cerebellum in anesthetized cynomolgus monkey after 18.5 mins postinjection; format: ADME, organism-based, Macaca fascicularis; conditions: in vivo
Pons [28] = experiment: Drug uptake in anesthetized cynomolgus monkey brain pons after 1.5 mins postinjection; format: ADME, organism-based, Macaca fascicularis; conditions: in vivo, 0.025 h
[29] = Ratio of drug uptake in occipital lobe to cerebellum in anesthetized cynomolgus monkey after 18.5 mins postinjection; format: ADME, organism-based, Macaca fascicularis; conditions: in vivo
Putamen [30] = experiment: Drug uptake in anesthetized cynomolgus monkey brain putamen after 2.5 mins postinjection; format: ADME, organism-based, Macaca fascicularis; conditions: in vivo
Pons [31] = experiment: Drug uptake in anesthetized cynomolgus monkey brain pons after 75 mins postinjection; format: ADME, organism-based, Macaca fascicularis; conditions: in vivo, 1.25 h
Medulla [32] = experiment: Drug uptake in anesthetized cynomolgus monkey brain medulla after 95 mins postinjection; format: ADME, organism-based, Macaca fascicularis; conditions: in vivo
Midbrain [33] = experiment: Drug uptake in anesthetized cynomolgus monkey brain midbrain after 0.5 mins postinjection; format: ADME, organism-based, Macaca fascicularis; design: unit not given here; conditions: in vivo
Caudate [34] = experiment: Drug uptake in anesthetized cynomolgus monkey brain caudate after 95 mins postinjection; format: ADME, organism-based, Macaca fascicularis, Caudate nucleus; conditions: in vivo

Q: Which results are given for O=C(OCCC[18F])C1C2CCC(CC1c1cccc(/C=C\I)c1)N2 (centres undefined)?
A: Drug uptake (Midbrain [1]): 4.45; Ratio [2]: 1.4; Ratio [3]: 1.1; Drug uptake (Pons [4]): 0.95; Drug uptake [5]: 2.72; Drug uptake (Midbrain [6]): 5.01; Drug uptake (Medulla [7]): 4.24; Drug uptake (Putamen [8]): 4.71; Drug uptake [9]: 3.68; Ratio [10]: 1.4; Drug uptake (Thalamus [11]): 2.83; Drug uptake (Thalamus [12]): 4.59; Ratio [13]: 1.2; Drug uptake (Thalamus [14]): 4.15; Ratio [15]: 0.9; Drug uptake (Putamen [16]): 4.27; Drug uptake [17]: 2.56; Drug uptake (Thalamus [18]): 2.07; Ratio [19]: 1.2; Drug uptake (Putamen [20]): 4.99; Drug uptake (Pons [21]): 4.2; Drug uptake (Thalamus [22]): 4.46; Drug uptake (Medulla [23]): 4.36; Drug uptake [24]: 0.16; Drug uptake (Putamen [25]): 5.03; Drug uptake (Caudate [26]): 0.64; Ratio [27]: 1; Drug uptake (Pons [28]): 0.21; Ratio [29]: 0.8; Drug uptake (Putamen [30]): 0.84; Drug uptake (Pons [31]): 4.34; Drug uptake (Medulla [32]): 4.93; Drug uptake (Midbrain [33]): 0.01; Drug uptake (Caudate [34]): 3.82
